Laboratory results taken from patent US8946446B2, “Pyrrolo sulfonamide compounds for modulation of orphan nuclear receptor RAR-related orphan receptor-γ (ROR-γ, NR1F3) activity and for the treatment of chronic inflammatory and autoimmune diseases” (Phenex Pharmaceuticals AG, priority 2011, dated 2015).

Molecular target: T1, RORγ ligand binding domain (LBD) (Homo sapiens, UniProt P51449)
T1 construct: made in house; host or cells: E. coli BL-21 (BL3), vector pDEST15
T1 sequence (P51449 269-508 limits assumed): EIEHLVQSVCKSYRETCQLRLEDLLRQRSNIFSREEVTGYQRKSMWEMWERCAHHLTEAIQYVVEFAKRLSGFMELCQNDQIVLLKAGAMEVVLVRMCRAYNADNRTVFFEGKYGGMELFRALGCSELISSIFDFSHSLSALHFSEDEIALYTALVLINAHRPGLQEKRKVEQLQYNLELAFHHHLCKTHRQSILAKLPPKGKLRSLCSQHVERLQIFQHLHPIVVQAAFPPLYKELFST
Test: TR-FRET Activity Assay (ligand sensing, RORγ-LBD / coactivator peptide interaction)
Type: biochemical
Conditions: not given
Source text: This method measures the ability of putative ligands to modulate the interaction between the purified bacterial expressed RORγ ligand binding domain (LBD) and synthetic N-terminally biotinylated peptides which are derived from nuclear receptor coactivator proteins such as but not limited to SRC1 (NcoA1), SRC2 (NcoA2, TIF2), SRC3 (NcoA3), PGC1α, PGC1β, CBP, GRIP1, TRAP220, RIP140.
The ligand-binding domain (LBD) of RORγ was expressed as fusion protein with GST in […] cells using the vector pDEST15. Cells were lysed by lysozyme-treatment and sonication, and the fusion proteins purified over glutathione sepharose (Pharmacia) according to the manufacturers instructions. For screening of compounds for their influence on the RORγ-peptide interaction, the LANCE technology (Perkin Elmer) was applied. This method relies on the binding dependent energy transfer from a donor to an acceptor fluorophor attached to the binding partner of interest. For ease of handling and reduction of background from compound fluorescence LANCE technology makes use of generic fluorophore labels and time resolved detection assays were done in a final volume of 25 μL in a 384 well plate, in a Tris-based buffer system (20 mM Tris-HCl pH6.8; 60 mM KCl, 1 mM DTT; 5 mM MgCl2; 35 ng/μL BSA), containing 20-60 ng/well recombinantly expressed RORγ-LBD fused to GST, 200-600 nM N-terminally biotinylated peptide, 200 ng/well Streptavidin-xIAPC conjugate (Prozyme) and 6-10 ng/well Eu W1024-antiGST (Perkin Elmer). DMSO content of the samples was kept at 1%.
After generation of the Tris-based buffer system, the potentially RORγ modulating ligands were diluted. […] The LANCE signal was detected by a Perkin Elmer EnVision™ Multilabel Counter. The results were visualized by plotting the ratio between the emitted light at 665 nm and 615 nm. […] Ligands that promote the complex formation induce a concentration-dependent increase in time-resolved fluorescent signal.
The normalised TR-FRET assay values, using the following equation: 1000*665 nm measurement value/615 nm measurement value, were transferred to the program GraphPad Prism to generate graphs and dose response curves using the following equation:
Equation: Sigmoidal Dose-Response (Variable Slope) Y=Bottom+(Top-Bottom)/(1+10^((LogEC50−X)*HillSlope)) X is the logarithm of the concentration. Y is the response. Y starts at Bottom and goes to Top with a sigmoidal shape.
This is identical to the “four parameter logistic equation”. The IC50 values are calculated using this equation.

| Compound | IC50 |
| --- | --- |
| CCNS(=O)(=O)c1cc(-c2cc(C(C)(C)C)cc(C(C)(C)C)c2)n(CC2CCCCC2)c1C [Example 2, 1-(Cyclohexylmethyl)-5-(3,5-di-tert-butylphenyl)-N-ethyl-2-methyl-1H-pyrrole-3-sulfonamide] | < 500 nM |
| CC(=NO)c1cc(-c2cc(S(N)(=O)=O)c(C)n2CC2CCCCC2)cc(C(C)(C)C)c1 [Example 6, 5-(3-(tert-Butyl)-5-(1-(hydroxyimino)ethyl)phenyl)-1-(cyclohexylmethyl)-2-methyl-1H-pyrrole-3-sulfonamide] | 500 to 2000 nM |

Same assay, conditions: read-out: RORγ activity in the TR-FRET Activity Assay (IC50 FRET), Group

| IC50 | Compound |
| --- | --- |
| 500 to 2000 nM | Cc1c(S(=O)(=O)NC2CCCC2)cc(-c2cc(C(C)(C)C)cc(C(C)(C)C)c2)n1CC1CCCCC1 [2/4] |
| > 2000 nM | CNC(=O)COc1c(C(C)(C)C)cc(-c2cc(S(N)(=O)=O)c(C)n2CC2CCCCC2)cc1C(C)(C)C [16/10] |
| < 500 nM | Cc1c(S(N)(=O)=O)cc(-c2cc(C(C)(C)C)c(F)c(C(C)(C)C)c2)n1CC1CCCCC1 [12/39] |
| 500 to 2000 nM | Cc1c(S(=O)(=O)NC2CCC2)cc(-c2cc(C(C)(C)C)cc(C(C)(C)C)c2)n1CC1CCCCC1 [2/3] |
| < 500 nM | Cc1c(S(N)(=O)=O)cc(-c2cc(OCC(F)(F)F)nc(C(C)(C)C)c2)n1CC1CCCCC1 [12/12] |
| < 500 nM | Cc1c(S(N)(=O)=O)cc(-c2cc(C(C)(C)C)cc(C(C)(C)C)c2)n1CC1CCCCC1 [Example 1, 1-(Cyclohexylmethyl)-5-(3,5-di-tert-butylphenyl)-2-methyl-1H-pyrrole-3-sulfonamide] |
| < 500 nM | Cc1ccc2c(-c3cc(S(N)(=O)=O)c(C)n3CC3CCCCC3)cn(S(=O)(=O)N3CCCCC3)c2c1 [1/35] |
| > 2000 nM | Cc1c(S(N)(=O)=O)cc(-c2cc3c(c(C(C)(C)C)c2)OCC(=O)N3C)n1CC1CCCCC1 [12/9] |
| 500 to 2000 nM | Cc1c(S(N)(=O)=O)cc(-c2cn(S(=O)(=O)NC3CCCCC3)c3ccccc23)n1CC1CCCCC1 [1/34] |
| 500 to 2000 nM | CC(C)(C)c1cc(-c2c(Br)c(S(N)(=O)=O)c(Br)n2CC2CCCCC2)cc(C(C)(C)C)c1 [Example 32, 2,4-Dibromo-1-(cyclohexylmethyl)-5-(3,5-di-tert-butylphenyl)-1H-pyrrole-3-sulfonamide] |
| 500 to 2000 nM | Cc1c(S(N)(=O)=O)cc(-c2cc(C(=O)NCC(C)C)cc(C(C)(C)C)c2)n1CC1CCCCC1 [Example 13, 3-(tert-Butyl)-5-(1-(cyclohexylmethyl)-5-methyl-4-sulfamoyl-1H-pyrrol-2-yl)-N-isobutylbenzamide] |
| < 500 nM | Cc1c(S(N)(=O)=O)cc(-c2cc(C(C)(C)C)nc(C(C)(C)C)c2)n1CC1CCCCC1 [Example 18, 1-(Cyclohexylmethyl)-5-(2,6-di-tert-butylpyridin-4-yl)-2-methyl-1H-pyrrole-3-sulfonamide] |
| > 2000 nM | Cc1c(S(N)(=O)=O)cc(-c2ccc3c(c2)C(C)(C)CN(C(C)C)S3(=O)=O)n1CC1CCCCC1 [12/18] |
| < 500 nM | Cc1c(S(N)(=O)=O)cc(-c2ccc(S(=O)(=O)N(C)C(C)(C)C)c(C(C)(C)C)c2)n1CC1CCCCC1 [22/2] |
| 500 to 2000 nM | Cc1c(S(N)(=O)=O)cc(-c2cc(C(=O)NC(C)(C)C)nc(C(C)(C)C)c2)n1CC1CCCCC1 [Example 20, N,6-Di-tert-butyl-4-(1-(cyclohexylmethyl)-5-methyl-4-sulfamoyl-1H-pyrrol-2-yl)picolinamide] |
| > 2000 nM | Cc1c(S(N)(=O)=O)cc(-c2cc(C(C)C)c3c(c2)C(C)(C)NS3(=O)=O)n1CC1CCCCC1 [12/17] |
| < 500 nM | Cc1c(S(=O)(=O)NCCO)cc(-c2cc(C(C)(C)C)cc(C(C)(C)C)c2)n1CC1CCCCC1 [2/2] |
| 500 to 2000 nM | Cc1c(S(=O)(=O)NCCC(=O)O)cc(-c2cc(C(C)(C)C)cc(C(C)(C)C)c2)n1CC1CCCCC1 [Example 39, 3-(1-(Cyclohexylmethyl)-5-(3,5-di-tert-butylphenyl)-2-methyl-1H-pyrrole-3-sulfonamido)propanoic acid] |
| > 2000 nM | Cc1c(S(N)(=O)=O)cc(-c2cc(C(C)(C)O)c3c(c2)C2(CCO3)CC2)n1CC1CCCCC1 [Example 37, 1-(Cyclohexylmethyl)-5-(8-(2-hydroxypropan-2-yl)spiro[chroman-4,1′-cyclopropan]-6-yl)-2-methyl-1H-pyrrole-3-sulfonamide] |
| 500 to 2000 nM | Cc1c(S(=O)(=O)NCc2nc(C(=O)O)co2)cc(-c2cc(C(C)(C)C)cc(C(C)(C)C)c2)n1CC1CCCCC1 [5/5] |

| IC50 | Compound |
| --- | --- |
| > 2000 nM | Cc1c(S(=O)(=O)NCC(=O)O)cc(-c2cc(C(C)(C)C)cc(C(C)(C)C)c2)n1CC1CCCCC1 [Example 43, 2(1-(Cyclohexylmethyl)-5(3,5-di-tert-butylphenyl)-2-methyl-1H-pyrrole-3-sulfonamido)acetic acid] |
| 500 to 2000 nM | Cc1c(S(N)(=O)=O)cc(-c2cc(C(F)(F)F)c3c(c2)C2(CCO3)CC2)n1CC1CCCCC1 [12/41] |
| 500 to 2000 nM | Cc1c(S(N)(=O)=O)cc(-c2cc(C(C)(C)C)cc(C(C)(C)C)c2)n1CC1CCCC1 [1/38] |
| > 2000 nM | CC(=O)c1cc(-c2cc(S(N)(=O)=O)c(C)n2CC2CCCCC2)cc(C(C)(C)C)c1 [12/27] |
| < 500 nM | CC(C)(C)c1cc(-c2cc(S(N)(=O)=O)c(Cl)n2CC2CCCCC2)cc(C(C)(C)C)c1 [Example 29, 2-Chloro-1-(cyclohexylmethyl)-5-(3,5-di-tert-butylphenyl)-1H-pyrrole-3-sulfonamide] |
| < 500 nM | Cc1c(S(N)(=O)=O)cc(-c2ccc(S(=O)(=O)N3CCC3(C)C)c(C(C)(C)C)c2)n1CC1CCCCC1 [1/24] |
| 500 to 2000 nM | Cc1c(S(N)(=O)=O)cc(-c2cn(S(=O)(=O)c3ccccc3Cl)c3ccccc23)n1CC1CCCCC1 [Example 53, 5-(1-((2-Chlorophenyl)sulfonyl)-1H-indol-3-yl)-1-(cyclohexylmethyl)-2-methyl-1H-pyrrole-3-sulfonamide] |
| < 500 nM | Cc1c(S(N)(=O)=O)cc(-c2ccc(S(=O)(=O)N3CCCCC3)c(C(C)(C)C)c2)n1CC1CCCCC1 [1/25] |
| > 2000 nM | Cc1c(S(N)(=O)=O)cc(-c2cc(C(F)(F)F)c3ncccc3c2)n1CC1CCCCC1 [1/16] |
| < 500 nM | Cc1c(S(=O)(=O)NCCCCCO)cc(-c2cc(C(C)(C)C)cc(C(C)(C)C)c2)n1CC1CCCCC1 [Example 5] |
| < 500 nM | Cc1c(S(N)(=O)=O)cc(-c2cc(C(C)(C)C)c(C#N)c(C(C)(C)C)c2)n1CC1CCCCC1 [Example 9, 1-(Cyclohexylmethyl)-5-(3,5-di-tert-butyl-4-cyanophenyl)-2-methyl-1H-pyrrole-3-sulfonamide] |
| > 2000 nM | Cc1c(S(N)(=O)=O)cc(-c2cc3c(c(C(C)(C)C)c2)OCCC3=NO)n1CC1CCCCC1 [Example 6/1, 5-(8-(tert-Butyl)-4-(hydroxyimino)chroman-6-yl)-1-(cyclohexylmethyl)-2-methyl-1H-pyrrole-3-sulfonamide] |
| > 2000 nM | Cc1c(S(N)(=O)=O)cc(-c2cc(C(=O)N(C)C(C)(C)C)cc(C(F)(F)F)c2)n1CC1CCCCC1 [13/14] |
| > 2000 nM | Cc1c(S(N)(=O)=O)cc(-c2cc(OCCCC(=O)O)cc(C(C)(C)C)c2)n1CC1CCCCC1 [Example 16, 4-(3-(tert-Butyl)-5-(1-(cyclohexylmethyl)-5-methyl-4-sulfamoyl-1H-pyrrol-2-yl)phenoxy)butanoic acid] |
| 500 to 2000 nM | Cc1c(S(N)(=O)=O)cc(-c2ccc(S(=O)(=O)N3CCC(C)CC3)c(C(C)(C)C)c2)n1CC1CCCCC1 [1/26] |
| > 2000 nM | COc1cc(-c2cc(S(N)(=O)=O)c(C)n2CC2CCCCC2)cc(C(C)(C)C)c1 [16/1] |
| > 2000 nM | Cc1c(S(N)(=O)=O)cc(-c2cc3c(c(C(C)(C)C)c2)OCCC3O)n1CC1CCCCC1 (stereo not drawn) [12/45] |
| 500 to 2000 nM | Cc1c(S(N)(=O)=O)cc(-c2cnc(NCC(C)(C)C)c(C(F)(F)F)c2)n1CC1CCCCC1 [34/5] |
| 500 to 2000 nM | Cc1c(S(N)(=O)=O)cc(-c2cn(S(=O)(=O)N3CCCCC3)c3ccccc23)n1CC1CCCCC1 [1/33] |
| > 2000 nM | Cc1c(S(N)(=O)=O)cc(-c2cccc(S(=O)(=O)N(C)C(C)(C)C)c2)n1CC1CCCCC1 [1/17] |
